This is an account of results in US12377166B2, “Iron oxide nanoparticle for targeted chemo-immunotherapy” (University of Washington, priority 2021, dated 2025).

Data set [1] has as its system IL-12. The data set can be described thus: IL-12 production by BMDCs (ELISA). It counts as cell-based, BALB/c mice. The note with it: 10 μg/mL Poly IC equivalent, 24 h. As for the experimental part:
IL-12 production by ELISA assay. All conditions used were same as those for viability assay. Twenty-four hours after addition of agents into cell medium, supernatants were collected and IL-12 levels in medium were assessed by an ELISA assay kit following the manufacturer's protocol. Each condition was triplicated.

Data set [2] concerns IL-12. The data set can be described thus: Serum/plasma IL-12 after I.V. injection (ELISA). The note with it: for change of plasma IL-12 level: I.V., DOX 5 mg/kg, Poly IC 18 mg/kg, or NP (DOX 10 mg/kg, Poly IC 18 mg/kg). It counts as in vivo, mice. As for the experimental part: Six-week-old mice were administered with IONP-DOX-Poly IC-EBP-Cy5 through I.V. injection (dosage: 10 mg/kg DOX or equivalent). At 1, 2, 4, 8, 24 and 72 h post-injection, blood (5-25 μL) was collected from tail vein. The total amount of blood withdrawn from each mouse never exceeded one percent of the total body weight of the animal during the experiment. Whole blood was diluted with PBS and spun using a benchtop centrifuge for 2 min at 5000 g to separate the plasma. The diluted plasma was added to a 96-well black plate. The plate was scanned on a SpectraMax i3 plate reader (fluorescence mode) to measure Cy5 (ex, 646 nm; em, 676 nm) and DOX (ex, 500 nm; em, 600 nm) fluorescence signals. Three mice were used for each group.
The same conditions in pharmacokinetics study were used here except that blood was collected before agent administration and 2, 6.5 and 24 h after administration. IL-12 in plasma was assessed using an ELISA kit following the manufacturer's instruction and quantified with a SpectraMax i3 plate reader.
(In an ELISA, binding on a coated surface is turned into a signal by an enzyme label.)

Data set [3] relates to 4T1 cells. The data set can be described thus: Alamar Blue cell viability assay. As to conditions: 72 h incubation. Format: cell-based, murine. As for the experimental part: Alamar Blue cell viability assay. Cells were seeded in a 96-well plate and incubated overnight. The following day, the medium was replaced with medium containing various agents. The cells were then incubated for 72 h. Cell viability was assessed using the Alamar Blue assay. Briefly, the medium was replaced with cell culture medium containing the reagent and allowed to incubate for 2 h. Following the incubation, a microplate reader (SpectraMax i3 multimode microplate reader, Molecular Devices) was used to determine the fluorescence intensity of the dye (550ex/590em). The fluorescence intensity from NP or free drug treated cells was compared to those from untreated control cells to determine percent viability. Each condition was triplicated.

Another data set deals with 4T1-luc flank tumor. The data set can be described thus: Tumor growth inhibition in 4T1-luc flank tumor model. Format: in vivo. As to conditions: for inhibition to tumor growth as compared to PBS-treated mice: three I.V. doses days 7, 10, 13, free DOX 5 mg/kg, NP DOX 10 mg/kg, Poly IC 18 mg/kg. As for the experimental part:
6-Week-old female BALB/c mice were used. 4T1-luc cells were transfected to stably express luciferase so that bioluminescence imaging could be used to monitor tumor growth. 4T1-luc cells were trypsinized and suspended in PBS (10^7 cells/mL) and injected subcutaneously into the right flanks of mice (0.1 mL per mouse). Seven days after tumor inoculation, twenty-eight mice were randomly divided into 7 groups and each group was administered through intravenous injection with three doses of one of the following agents: PBS, IONPs, DOX, Poly IC, IONP-DOX-EBP, IONP-DOX-Poly IC, and IONP-DOX-Poly IC-EBP. […] For all NP agents, doses of DOX and Poly IC were 10 mg/kg and 18 mg/kg, respectively. Each mouse received an injection at day 7, 10 and 13 after tumor inoculation. The tumor size was measured by a caliper and the tumor volume was calculated by equation: V=width^2×length/2. The tumor size was measured every 3 days starting at day 4 after tumor cell inoculation. The body weight was also monitored after first agent administration.

The subject of data set [4] is T cells (CD8, CD25, CD69). The data set can be described thus: Antigen-specific T cell response by flow cytometry in 4T1 tumor-bearing mice. It counts as in vivo, BALB/c mice. The note with it: three days after treatment. As for the experimental part:
Twelve 6-week-old female BALB/c mice were used. 4T1 cells (10^5 cells per mouse) were inoculated subcutaneously into #9 mammary glands. The tumors were allowed to grow into palpable masses. Ten days after tumor inoculation, the 12 mice were separated into 4 treatment groups. Four treatments, including IONP-DOX-EBP-Poly IC (10 mg/kg DOX and Poly IC), IONP-DOX-EBP (10 mg/kg DOX), free Poly IC (10 mg/kg Poly IC) and PBS, were administered intravenously into four groups of mice bearing tumors (200 μL per mouse), respectively. Three days after administration, mice were euthanized, and tumors and spleens were harvested.
Harvested tumors and spleens were then sectioned, squeezed through 70 μm cell strainers and washed with PBS w/1% v/v ratio of FBS to obtain single cell suspensions. Cells were spun down with a centrifuge at 1500 rpm for 4 min and resuspended in 750 μL PBS w/1% v/v FBS. Anti-CD8-PE, anti-CD25-APC, and anti-CD69-FITC (Biolegend Inc.) solutions (3 μL each) were then mixed with 241 μL of PBS w/1% v/v FBS (total antibody solution volume for each single cell suspension was 250 μL). The cell/antibody suspension was then incubated in dark at room temperature for 30 mins. After incubation, 11 mL of PBS w/1% v/v FBS was added to all cell/antibody suspensions followed by centrifuging at 1500 rpm for 4 mins. Finally, all cell pellets were resuspended in 500 μL PBS w/1% v/v FBS and analyzed by flow cytometry (FACSCanto II).

In data set [5] the test system is bone marrow-derived dendritic cells (BMDCs). The data set can be described thus: Confocal imaging of cellular uptake into BMDCs. As to conditions: 10 μg/mL Poly IC equivalent, 1 h, 37 °C. It counts as cell-based, BALB/c mice. As for the experimental part: BMDCs preparation. BMDC were generated from female BALB/c mice of 6-8 weeks old. The isolation of bone marrow cells was carried out following the method described in Madaan, A., et al., Journal of Biological Methods (2014) 1 (1). Cells were resuspended in RPMI-1640 supplemented with 10% FBS, 20 ng/mL recombinant murine GM-CSF (Shenandoah Biotechnology, Inc, Warwick, PA), and antibiotics (Pen Strep). Cells were allowed to differentiate for 7 d with one addition of fresh media at day 3. At day 7, cells were aspirated and counted for assays. Medium containing 10 ng/mL GM-CSF was used in assays.
Confocal microscopic imaging of cellular uptake. Cells were seeded onto a chamber slide (Nunc™ Lab-Tek™ II Chamber Slide™ System, Thermo Fisher Scientific Rockford, IL) with a density of 50,000 per well and incubated overnight. DOX, IONP-DOX-EBP-Cy5, or IONP-DOX-Poly IC-EBP-Cy5 was added into cells at a concentration of 10 μg/mL Poly IC-equivalency and incubated for 1 h. Cells were then washed and imaged with a Leica SP8X confocal laser scanning microscope.

For a further data set, the system named is 4T1-luc orthotopic tumor. The data set can be described thus: Tumor growth, survival and metastasis in 4T1-luc primary (orthotopic) tumor model. It counts as in vivo, BALB/c mice. As for the experimental part:
6-Week-old female BALB/c mice were used in this study. 4T1-luc cells were injected subcutaneously into the #9 mammary glands (10^6 cells in 0.05 mL PBS per mouse). Seven days after tumor inoculation, eighteen mice were randomly divided into 3 groups and each group was administered through intravenous injection with five doses of one of the following agents: PBS, DOX, and IONP-DOX-Poly IC-EBP. For free DOX, dose was 5 mg/kg per injection. For IONP-DOX-Poly IC-EBP, doses of DOX and Poly IC were 10 mg/kg and 18 mg/kg, respectively. Each mouse received an injection at day 7, 10, 13, 16 and 19 after tumor inoculation. The tumor size and body weight were monitored after first administration. Metastasis was monitored by IVIS imaging starting at day 22 after tumor inoculation. Mice were imaged at day 22, 25, 28, 31, 34, 37, 41, 45 and 50. Mice were euthanized following the approved animal protocol.

Data set [6] concerns 4T1-luc tumors and organs. The data set can be described thus: DOX uptake in organs and tumors by confocal imaging. Format: in vivo, BALB/c mice. As to conditions: 10 mg/kg DOX, single I.V., 48 h post-injection. As for the experimental part:
(§1) One week after inoculated with 4T1-luc cells, mice were injected with various agents intravenously. Forty-eight hours later, mice were euthanized and organs (heart, kidney, liver, lung, and spleen) and tumors were harvested and pre-served in 10% formalin for 48 h. Formalin-fixed tissue samples were first transferred from PBS to 70% ethanol and maintained for 2 hours, and then were transferred into 95% ethanol/5% methanol and maintained for an additional 2 hours. The samples were transferred in absolute ethanol and maintained for 1 hour, and then transferred again into 3 consecutive absolute xylene solutions and maintained in each for 1 hour. The samples were dehydrated and then placed in 2 consecutive melted paraffin baths and maintained in each for 2 hours. The tissue samples were then embedded in paraffin blocks and sectioned at 10 um thickness and loaded onto microscope slides. The loaded slides were heated to remove excess paraffin and adhere the samples to the slides. The samples were then deparaffinized by a series of xylene, ethanol and PBS baths.
The deparaffinized tissue samples were stained with DAPI and WGA-AF647 and mounted with Prolong Gold mounting medium. Samples were imaged with a Leica SP8X confocal microscope.

Data set [7] is described as follows: H&E histopathology of organs. The note with it: 10 mg/kg DOX equivalent, single I.V., 48 h. Format: in vivo, BALB/c mice. As for the experimental part:
as §1
The deparaffinized samples were stained with haemotoxylin and eosin, and mounted with Prolong Gold mounting medium. Microscopic images of tissues were acquired using a Nikon ECLIPSE TE 2000-S microscope.

In data set [8] the test system is 4T1 cells. The data set can be described thus: Cell uptake assay by flow cytometry. It counts as cell-based, murine. The note with it: 2 h. As for the experimental part:
Cell uptake assay by flow cytometry. 4T1 cells were incubated with different agents for 2 h (10 μg/mL DOX or DOX equivalent NPs) at either 37° C. or 4° C., followed by washing with cold PBS for 3 times. Cells were then trypsinized and resuspended in cold PBS and analyzed by flow cytometry (FACSCanto II, BD Biosciences). Each condition was triplicated.
(In general: Flow cytometry measures light scatter and fluorescence of single cells or particles in a stream.)

As to “polyinosinic:polycytidylic acid [Poly IC]”, the “production of IL-12 in cellular supernatants” value in the data set with IL-12 [1] was “equivalent production of IL 12”. The “time of peak IL-12 level post injection” value with IL-12 [2] (I.V. injection) was found to be 1.5 h. For the same compound, the “change of plasma IL-12 level” value with IL-12 [2] was “rapid elevation of the IL-12 level”. The “toxicity to cells (viability)” value in the data set on 4T1 cells [3] is listed as “non-toxic to cells”. Also, in the data set with 4T1-luc flank tumor, the “inhibition to tumor growth as compared to PBS-treated mice” value is “small”. Also, in data set [4], the “CD8 cells in tumor” value was 8.63%, the “CD25 cells in tumor” value amounted to 7.91% and the “CD69 cells in tumor” value is recorded as 3.57%.
Regarding `COc1cccc2c1C(=O)c1c(O)c3c(c(O)c1C2=O)C[C@@](O)(C(=O)CO)C[C@@H]3O[C@H]1C[C@H](N)[C@H](O)[C@H](C)O1` [DOX, doxorubicin], in the data set on IL-12 [2], the “change of plasma IL-12 level” value is listed as “did not increase the IL-12 level”. For the same compound, the “IC50 (cell viability)” value in the data set on 4T1 cells [3] (DOX concentration) was “about 0.36 μg/mL”. Moreover, the “uptake and localisation of DOX in BMDCs” value in data set [5] was “can enter BMDCs”. The compound also showed a median survival time with 4T1-luc orthotopic tumor (five I.V. injections 3 days apart, free DOX 5 mg/kg, NP DOX 10 mg/kg, Poly IC 18 mg/kg) of 32.5 days. Also, the “metastasis delayed to day after tumor inoculation” value in the data set with 4T1-luc orthotopic tumor (five I.V. injections, IVIS bioluminescence) was determined as 31 days. The “time to mouse death from severe toxicity” value in the data set on 4T1-luc flank tumor (free DOX 10 mg/kg I.V.) is “less than 2 weeks”. Also, the “inhibition to tumor growth as compared to PBS-treated mice” value with 4T1-luc flank tumor is listed as “small”. In data set [6], the “DOX signal in liver” value is “strong and evenly distributed fluorescence signal”; the “DOX signal in tumors” value was “No observable DOX signal”. In data set [7], the “heart damage (H&E)” value is reported as “severe heart damage” and the “pathological changes in organs other than heart (H&E)” value is reported as “No pathological changes”. Further, the “mean fluorescence intensity (MFI) of DOX, cellular uptake” value with 4T1 cells [8] (10 μg/mL DOX equivalent) is recorded as 451. In the data set on 4T1 cells [8] (4 °C vs 37 °C), the “DOX taken up by cells at 4° C.” value is recorded as 10%.
